The subject of the series is PBMC. Briefly: 193 ssRNA 4mer-motif library screen: IL-12 (IL-12p40) production in PBMC of six donors, poly-L-Arg complexation, ELISA at 44 hours, IL-12 index and adjusted IL-12 index. The class given is cell-based, human. Also noted: key to Adjusted IL-12 index Mean: IL-12 index (ratio to 9.2sense) minus donor mean, averaged over 6 donors. Particulars: 193 ssRNA oligonucleotide library; data from six individual donors summarized; ascending order. How it is done: FIG. 9: PBMC of six different healthy donors were isolated and stimulated with poly-L-arginine complexed ssRNA oligonucleotides in duplicates. 44 hours after stimulation IL-12p40 production was assessed in supernatant via ELISA. For all tested ssRNA oligonucleotides (table 3), the mean values of the measured duplicates were normalized to the positive control ssRNA oligonucleotide 9.2sense (5′-AGCUUAACCUGUCCUUCAA (SEQ ID NO: 194)) by dividing the mean value of tested oligonucleotide by the mean value of 9.2sense (=IL-12 index of a given oligonucleotide). Next, all individual IL-12 indices were adjusted to the mean value of all IL-12 indices by subtracting the mean value of all IL-12 indices from the individual IL-12 index of a given oligonucleotide (=adjusted IL-12 index). Data from six individual donors were summarized and were assorted in ascending order displaying the corresponding SEM (for a complete listing including numerical data see table 4). FIG. 9A discloses SEQ ID NOS 460-509, respectively, in order of appearance. FIG. 9B discloses SEQ ID NOS 510-559, respectively, in order of appearance. FIG. 9C discloses SEQ ID NOS 560-609, respectively, in order of appearance. FIG. 9D discloses SEQ ID NOS 610-652, respectively, in order of appearance.
All 193 ssRNA oligonucleotides were tested on PBMC of six individual healthy donors using poly-L-Arg for complexation. At 44 hours after stimulation with RNA oligonucleotides, supernatants were collected and IL-12 production was measured by ELISA. Prior to statistical analysis the raw data were processed as follows: for each cell culture plate the mean IL-12 value of the experimental duplicates for each tested ssRNA oligonucleotide were normalized to the ssRNA oligonucleotide RNA9.2sense (5′-AGCUUAACCUGUCCUUCAA-3′ (SEQ ID NO: 194)). This standard RNA oligonucleotide was included as a positive control on all cell culture plates. Normalization was performed by calculating the ratio of IL-12 induced by the tested oligonucleotide and IL-12 induced by the standard oligonucleotide RNA9.2sense. Thus, for each tested oligonucleotide in an individual donor a mean ratio of IL-12 induction was obtained. In the following, this mean of the ratios is referred to as IL-12 index (one value of IL-12 index per donor). […] The corresponding IL-12 index of oligonucleotide ANP175 for donor 3 was calculated to be 1.90 (=1725 pg/ml divided by 908 pg/ml).
Next, the means of all IL-12 indices for every individual donor were calculated. Then the adjusted IL-12 indices were calculated as IL-12 index minus the mean of all IL-12 indices of one individual donor. […] The adjusted IL-12 index of ANP175 was calculated: 1.90 minus 0.44=1.46. The adjusted IL-12 indices from all six donors were summarized by calculating the means and the corresponding standard error of mean. The data are depicted in ascending order (FIG. 9A, B, C, D). The adjusted IL-12 indices of the top thirty ssRNA oligonucleotides of all six donors were compared using a two-tailed Student's t-test (FIG. 10). For most combinations tested, a significant difference was observed when the interval between the analyzed pairs was at least eight or nine places in the assortment.
In general terms: An ELISA detects its analyte on a solid surface through an enzyme-linked reagent.

Consider “AAAAAAACACGAAAAAAAA (RNA, backbone not given here) [ANP-Oligo 054]”, for which the “Adjusted IL-12 index Mean” value was −0.65.

Take “AAAAAAACACUAAAAAAAA (RNA, backbone not given here) [ANP-Oligo 055]”: the “Adjusted IL-12 index Mean” value is listed as −0.53. For “AAAAAAACAGCAAAAAAAA (RNA, backbone not given here) [ANP-Oligo 056]”, the “Adjusted IL-12 index Mean” value is recorded as −0.54. For “AAAAAAACAGGAAAAAAAA (RNA, backbone not given here) [ANP-Oligo 057]”, the “Adjusted IL-12 index Mean” value is recorded as −0.6. Take “AAAAAAACAGUAAAAAAAA (RNA, backbone not given here) [ANP-Oligo 058]”: the “Adjusted IL-12 index Mean” value turned out to be 0.22. On to “AAAAAAACAUCAAAAAAAA (RNA, backbone not given here) [ANP-Oligo 059]”, for which the “Adjusted IL-12 index Mean” value is given as −0.48. On to “AAAAAAACAUGAAAAAAAA (RNA, backbone not given here) [ANP-Oligo 060]”, for which the “Adjusted IL-12 index Mean” value was −0.46. As for “AAAAAAACAUUAAAAAAAA (RNA, backbone not given here) [ANP-Oligo 061]”, the “Adjusted IL-12 index Mean” value is −0.23. Take “AAAAAAACCACAAAAAAAA (RNA, backbone not given here) [ANP-Oligo 062]”: the “Adjusted IL-12 index Mean” value was −0.66. As for “AAAAAAACCAGAAAAAAAA (RNA, backbone not given here) [ANP-Oligo 063]”, the “Adjusted IL-12 index Mean” value is reported as −0.57.

“AAAAAAACCAUAAAAAAAA (RNA, backbone not given here) [ANP-Oligo 064]”: the “Adjusted IL-12 index Mean” value is −0.38. For the substance “AAAAAAACCCCAAAAAAAA (RNA, backbone not given here) [ANP-Oligo 065]”, the “Adjusted IL-12 index Mean” value was −0.59.

For the substance “AAAAAAACCCGAAAAAAAA (RNA, backbone not given here) [ANP-Oligo 066]”, the “Adjusted IL-12 index Mean” value is recorded as −0.62.

“AAAAAAACCCUAAAAAAAA (RNA, backbone not given here) [ANP-Oligo 067]”: the “Adjusted IL-12 index Mean” value is recorded as −0.3. For “AAAAAAACCGCAAAAA4AA (DNA AAAAAAACCGCAAAAAAAA; RNA, backbone not given here) [ANP-Oligo 068]”, the “Adjusted IL-12 index Mean” value is listed as −0.56. The result for “AAAAAAACCGGAAAAAAAA (RNA, backbone not given here) [ANP-Oligo 069]” reads −0.64; that for “AAAAAAACCGUAAAAAAAA (RNA, backbone not given here) [ANP-Oligo 070]”, −0.16. With “AAAAAAACCUCAAAAAAAA (RNA, backbone not given here) [ANP-Oligo 071]”, the “Adjusted IL-12 index Mean” value was −0.56. The result for “AAAAAAACCUGAAAAAAAA (RNA, backbone not given here) [ANP-Oligo 072]” reads −0.51; that for “AAAAAAACCUUAAAAAAAA (RNA, backbone not given here) [ANP-Oligo 073]”, −0.28. The same measure for “AAAAAAACGACAAAAAAAA (RNA, backbone not given here) [ANP-Oligo 074]”: −0.6; for “AAAAAAACGAGAAAAAAAA (RNA, backbone not given here) [ANP-Oligo 075]”: −0.65; for “AAAAAAACGAUAAAAAAAA (RNA, backbone not given here) [ANP-Oligo 076]”: 0.02.

For “AAAAAAACGCCAAAAAAAA (RNA, backbone not given here) [ANP-Oligo 077]”, the “Adjusted IL-12 index Mean” value is −0.62. Turning to “AAAAAAACGCGAAAAAAAA (RNA, backbone not given here) [ANP-Oligo 078]”, the “Adjusted IL-12 index Mean” value was −0.59.

Take “AAAAAAACGCUAAAAAAAA (RNA, backbone not given here) [ANP-Oligo 079]”: the “Adjusted IL-12 index Mean” value is given as −0.09. The same measure for “AAAAAAACGGCAAAAAAAA (RNA, backbone not given here) [ANP-Oligo 080]”: −0.65; for “AAAAAAACGGGAAAAAAAA (RNA, backbone not given here) [ANP-Oligo 081]”: −0.63. As for “AAAAAAACGGUAAAAAAAA (RNA, backbone not given here) [ANP-Oligo 082]”, the “Adjusted IL-12 index Mean” value is given as 0.29. The result for “AAAAAAACGUCAAAAAAAA (RNA, backbone not given here) [ANP-Oligo 083]” reads −0.27.

In the case of “AAAAAAACGUGAAAAAAAA (RNA, backbone not given here) [ANP-Oligo 084]”, the “Adjusted IL-12 index Mean” value was −0.2.

On to “AAAAAAACGUUAAAAAAAA (RNA, backbone not given here) [ANP-Oligo 085]”, for which the “Adjusted IL-12 index Mean” value is reported as 0.57. For “AAAAAAACUACAAAAAAAA (RNA, backbone not given here) [ANP-Oligo 086]”, the “Adjusted IL-12 index Mean” value was −0.46. For “AAAAAAACUAGAAAAAAAA (RNA, backbone not given here) [ANP-Oligo 087]”, the “Adjusted IL-12 index Mean” value is recorded as −0.03. Consider “AAAAAAACUAUAAAAAAAA (RNA, backbone not given here) [ANP-Oligo 088]”, for which the “Adjusted IL-12 index Mean” value is 0.3. The same measure for “AAAAAAACUCCAAAAAAAA (RNA, backbone not given here) [ANP-Oligo 089]”: −0.42; for “AAAAAAACUCGAAAAAAAA (RNA, backbone not given here) [ANP-Oligo 090]”: −0.54. The same measure for “AAAAAAACUCUAAAAAAAA (RNA, backbone not given here) [ANP-Oligo 091]”: −0.33; for “AAAAAAACUGCAAAAAAAA (RNA, backbone not given here) [ANP-Oligo 092]”: 0. As for “AAAAAAACUGGAAAAAAAA (RNA, backbone not given here) [ANP-Oligo 093]”, the “Adjusted IL-12 index Mean” value is recorded as −0.31.

For the substance “AAAAAAACUGUAAAAAAAA (RNA, backbone not given here) [ANP-Oligo 094]”, the “Adjusted IL-12 index Mean” value worked out at 0.9.

As for “AAAAAAACUUCAAAAAAAA (RNA, backbone not given here) [ANP-Oligo 095]”, the “Adjusted IL-12 index Mean” value is −0.39. The same measure for “AAAAAAACUUGAAAAAAAA (RNA, backbone not given here) [ANP-Oligo 096]”: −0.14; for “AAAAAAACUUUAAAAAAAA (RNA, backbone not given here) [ANP-Oligo 097]”: −0.1; for “AAAAAAAGAACAAAAAAAA (RNA, backbone not given here) [ANP-Oligo 098]”: −0.6. Consider “AAAAAAAGAAGAAAAAAAA (RNA, backbone not given here) [ANP-Oligo 099]”, for which the “Adjusted IL-12 index Mean” value is −0.61. As for “AAAAAAAGAAUAAAAAAAA (RNA, backbone not given here) [ANP-Oligo 100]”, the “Adjusted IL-12 index Mean” value was determined as 0.01. As to “AAAAAAAGACCAAAAAAAA (RNA, backbone not given here) [ANP-Oligo 101]”, the “Adjusted IL-12 index Mean” value is given as −0.6. In the case of “AAAAAAAGACGAAAAAAAA (RNA, backbone not given here) [ANP-Oligo 102]”, the “Adjusted IL-12 index Mean” value was −0.64.

Consider “AAAAAAAGACUAAAAAAAA (RNA, backbone not given here) [ANP-Oligo 103]”, for which the “Adjusted IL-12 index Mean” value is reported as −0.25. The same measure for “AAAAAAAGAGCAAAAAAAA (RNA, backbone not given here) [ANP-Oligo 104]”: −0.61.

In the case of “AAAAAAAGAGGAAAAAAAA (RNA, backbone not given here) [ANP-Oligo 105]”, the “Adjusted IL-12 index Mean” value was −0.62. The result for “AAAAAAAGAGUAAAAAAAA (RNA, backbone not given here) [ANP-Oligo 106]” reads 0.21.

The record behind these values is patent US8815503B2, “Compositions and methods for immunostimulatory RNA oligonucleotides” (Rheinische Friedrich-Wilhelms-Universitat Bonn, priority 2005, dated 2014).
